# Test results taken from PubChem BioAssay (NCI).
#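 Growth conditions: 96-well plates. Treatment: test compound, 48 hours, 5 concentrations. Analysis: linear interpolation between bracketing concentrations; unreached endpoints set to highest concentration. GI50 marks 50% less growth. The concentration for full growth arrest is given as TGI.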
# How the values were obtained:
# Test in all cases: DTP human tumour cell line panel, 48 h
# SNB-19 CNS = test system: SNB-19 CNS
# CCRF-CEM leukemia = test system: CCRF-CEM leukemia
# OVCAR-5 ovarian = test system: OVCAR-5 ovarian
# M14 melanoma = test system: M14 melanoma
# ACHN renal = test system: ACHN renal
# SK-MEL-28 melanoma = test system: SK-MEL-28 melanoma
# OVCAR-8 ovarian = test system: OVCAR-8 ovarian
# K-562 leukemia = test system: K-562 leukemia
# NCI-H226 lung = test system: NCI-H226 lung
# HS 578T breast = test system: HS 578T breast
SMILES,TGI (SNB-19 CNS),TGI (CCRF-CEM leukemia),TGI (OVCAR-5 ovarian),TGI (M14 melanoma),TGI (ACHN renal),TGI (SK-MEL-28 melanoma),TGI (OVCAR-8 ovarian),TGI (K-562 leukemia),TGI (NCI-H226 lung),GI50 (NCI-H226 lung),GI50 (SNB-19 CNS),GI50 (CCRF-CEM leukemia),GI50 (OVCAR-5 ovarian),GI50 (M14 melanoma),GI50 (ACHN renal),GI50 (HS 578T breast),TGI (HS 578T breast),GI50 (SK-MEL-28 melanoma),GI50 (OVCAR-8 ovarian),GI50 (K-562 leukemia)
COCC(=O)CP(=O)(OC)OC,> 100 µM,> 100 µM,> 100 µM,> 100 µM,> 100 µM,> 100 µM,> 100 µM,> 100 µM,–,–,–,–,–,–,–,–,–,–,–,–
CCOC(=O)C1(Cc2ccccc2)CCCCCN1 (centres undefined),–,–,–,> 100 µM,> 100 µM,> 100 µM,> 100 µM,> 100 µM,–,–,–,–,–,–,–,–,–,–,–,–
CCCCCC(=O)c1ccc2[nH]c3c(C)cc([N+](=O)[O-])c(C)c3c2c1,> 100 µM,> 100 µM,> 100 µM,> 100 µM,> 100 µM,> 100 µM,> 100 µM,92.5 µM,> 100 µM,–,–,–,–,–,–,–,–,–,–,–
COc1cccc(C(=O)N2CCc3ccccc32)c1OC,> 100 µM,> 100 µM,> 100 µM,> 100 µM,> 100 µM,> 100 µM,> 100 µM,> 100 µM,> 100 µM,–,–,–,–,–,–,–,–,–,–,–
Cc1c(C(=O)NCCO)[n+](=O)c2cc(Cl)ccc2n1[O-],> 100 µM,> 100 µM,> 100 µM,> 100 µM,> 100 µM,> 100 µM,> 100 µM,> 100 µM,–,–,–,–,–,–,–,–,–,–,–,–
CCOc1ccc(/C=C(\Cl)c2ccc(OC)c(OC)c2)cc1,> 100 µM,> 100 µM,–,89.6 µM,> 100 µM,> 100 µM,> 100 µM,> 100 µM,74.8 µM,–,–,–,–,–,–,–,–,–,–,–
COC1OC(CO)C(O)C(O)C1Br (centres undefined),> 100 µM,> 100 µM,> 100 µM,> 100 µM,> 100 µM,> 100 µM,> 100 µM,> 100 µM,–,–,–,–,–,–,–,–,–,–,–,–
CN(CN1C(=O)C2Cc3ccccc3CN2C1=O)c1ccccn1 (centres undefined),> 100 µM,> 100 µM,> 100 µM,> 100 µM,> 100 µM,> 100 µM,> 100 µM,> 100 µM,> 100 µM,–,–,–,–,–,–,–,–,–,–,–
CC(=O)OC1CC2C(C)(C)C(=O)C=C[C@]2(C)C2CCC3(C)C(c4ccoc4)C(=O)[C@H]4O[C@]43[C@]12C (some centres undefined),67.5 µM,62.3 µM,42.5 µM,82.4 µM,45.1 µM,32.7 µM,49.9 µM,59.5 µM,50.4 µM,–,–,–,–,–,–,–,–,–,–,–
O=C(NCCCNc1cc(-c2cn(-c3ccccc3)nc2-c2cccc(O)c2)ccn1)c1ccccc1,> 100 µM,54.7 µM,75 µM,6.72 µM,> 100 µM,6.08 µM,37.7 µM,–,17.9 µM,2.72 µM,7.75 µM,3.14 µM,3.93 µM,2.56 µM,3.47 µM,3.06 µM,48.3 µM,2.18 µM,4.45 µM,–
C1CCN(c2nsc(N3CCCCC3)n2)CC1,> 100 µM,> 100 µM,> 100 µM,> 100 µM,> 100 µM,> 100 µM,> 100 µM,> 100 µM,> 100 µM,–,–,–,–,–,–,–,–,–,–,–
CCOC(=O)c1[nH]c(-c2ccc(Cl)cc2)cc1-c1cccnc1,> 100 µM,> 100 µM,> 100 µM,–,> 100 µM,> 100 µM,> 100 µM,> 100 µM,> 100 µM,17.3 µM,8.33 µM,0.391 µM,1.17 µM,–,0.714 µM,–,–,0.982 µM,2.51 µM,0.391 µM
CN(C)C(N)=NC#N,> 100 µM,–,> 100 µM,> 100 µM,> 100 µM,> 100 µM,> 100 µM,> 100 µM,> 100 µM,–,–,–,–,–,–,–,–,–,–,–
C(CCC[Te][Te]CCCCCCOC1CCCCO1)CCOC1CCCCO1 (centres undefined),29 µM,41.4 µM,33.4 µM,> 100 µM,22.7 µM,27.4 µM,33.9 µM,29.7 µM,–,–,–,–,–,–,–,–,–,–,–,–
C=C=C(CC)C(C(=O)OC)N(CC)CC (centres undefined),> 100 µM,> 100 µM,–,> 100 µM,> 100 µM,> 100 µM,> 100 µM,> 100 µM,> 100 µM,–,–,–,–,–,–,–,–,–,–,–
N=c1nnc(=O)c2c(s1)-n1ncc(C(=O)O)c1NN2,> 100 µM,–,> 100 µM,> 100 µM,–,> 100 µM,> 100 µM,> 100 µM,–,–,–,–,–,–,–,–,–,–,–,–
Nc1ccc2c(c1)NCCN2,> 100 µM,–,> 100 µM,> 100 µM,> 100 µM,> 100 µM,> 100 µM,> 100 µM,52.2 µM,–,–,–,–,–,–,–,> 100 µM,–,–,–
Cc1ccc(S(=O)(=O)NC(=O)NC23CC4CC(CC(F)(C4)C2)C3)cc1,> 100 µM,> 100 µM,> 100 µM,> 100 µM,> 100 µM,> 100 µM,> 100 µM,> 100 µM,–,–,–,–,–,–,–,–,–,–,–,–
O=C(O)/C(=C/c1c(O)ccc2ccccc12)c1csc(-c2nc(/C(=C\c3c(O)ccc4ccccc34)C(=O)O)cs2)n1,43 µM,31.4 µM,31.9 µM,25.4 µM,18.8 µM,32.1 µM,49.4 µM,38.6 µM,7.39 µM,–,–,–,–,–,–,–,–,–,–,–
CC(=O)O[C@H]1CC[C@@]2(C)C(=CC[C@H]3C4=CC=C(C(C)=O)[C@@]4(C)CCC32)C1 (some centres undefined),> 100 µM,> 100 µM,> 100 µM,> 100 µM,> 100 µM,> 100 µM,66.3 µM,–,71.4 µM,–,–,–,–,–,–,–,–,–,–,–
C(=N\OCc1ccccc1)/c1ncccc1C1OCCO1,> 100 µM,> 100 µM,> 100 µM,> 100 µM,> 100 µM,> 100 µM,> 100 µM,> 100 µM,–,–,–,–,–,–,–,–,–,–,–,–
O=C1O/C(=C(\Br)c2cccc3ccccc23)c2ccccc21,–,46.1 µM,> 54.9 µM,> 62.8 µM,> 55.1 µM,> 50.2 µM,> 62.3 µM,> 68.4 µM,> 55.7 µM,–,–,–,–,–,–,–,–,–,–,–
COc1cc(/C=C2\CC3C4CC=C5C[C@@H](OC(C)=O)CC[C@]5(C)C4CC[C@]3(C)C2=O)ccc1OCCCn1ccnc1 (some centres undefined),> 50 µM,–,40.9 µM,17.9 µM,21 µM,> 50 µM,21.6 µM,24.7 µM,17.8 µM,8.26 µM,20.2 µM,–,11.9 µM,9.28 µM,9.81 µM,8.26 µM,21.3 µM,16 µM,11 µM,9.69 µM
